“Also recorded” adds a separate entry of the source.
Assays:
[1] = system: Wistar rats; test: Growth rate (body weight) and food intake of Wistar rats; assay type: in vivo, rat; conditions: for Body mass: 2.5 μg/100 g continuous
Experimental: Adult male rat bred in the animal room facilities of Laboratory of Fundamental and Applied Bioenergetics (Wistar strain) or purchased from Charles-River Laboratories, Domaine des oncins, L'ARBRESLE France [(genetically obese normoglycemic (Zucker or Fa/Fa) or diabetic (ZDF)] were caged individually in stainless steel hanging cages and maintained in a 22° C., 50±10% relative humidity and 12 h:12 h light:dark environment. All animals were fed ad libitum with a standard rat chow (Safe A04, Villemoisson, France) and tap water. Body mass and food intake were recorded twice/thrice a week and fresh food was provided at the same time to ensure minimal disturbance to the animals' food behavior.
Eight-week old rats (300 g±10 g) were anesthetized by simultaneous intraperitoneal injection of diazepam 4 mg/kg and ketamine 100 mg/kg. In order to maintain body temperature during the surgery (10 min), animals were placed on a warm blanket. After interscapular shaving, a small incision of 0.5 cm of the skin allows the subcutaneous implantation of a small pellet (containing rT3 or 3′,3-T2) with a 10-gauge precision trochar. The pellets, manufactured by Innovative Research of America (Sarasota, Fla., USA) are constituted of a biodegradable matrix that effectively and continuously release the active product in the animal.
[…] (reverseT3) or 3-3′ diiodothyronine (3-3′ T2) were used at different doses (5, 0.5, or 0.1 mg/pellet) were implanted in order to provide a continuous and constant drug delivery over 60 days (which represents 25 μg, 2.5 μg or 0.5 μg/day/100 g BW).
Wistar rats were treated with rT3 hormone by a daily intraperitoneal injection (IP) (25 μg/100 g BW), a daily sub-cutaneous injection (SC) (25 μg/100 g BW), or a per os administration included in the rat food (25 μg/100 g BW). The continuous and constant administration was performed by using a pellet (25 μg/100 g BW).
However the role of the administration site was further investigated by comparing continuous administration of rT3 by osmotic pump implanted either subcutaneously or intraperitonally with the reference treatment administered by sub-cutaneous pellets. Wistar rats were treated for 21 days with placebo, sub-cutaneous pellet or sub-cutaneous or intraperitoneal osmotic pumps. rT3 was administered continuously (2.5 μg/100 g).
Wistar rats were treated by a continuous and constant administration of low doses of rT3 by 3 different methods of administration: • a sub-cutaneous pellet, • an osmotic pump placed under the skin, and • an osmotic pump placed in the peritoneal cavity.

[2] = system: Wistar rats; test: as above; assay type: in vivo, rat; conditions: ultra low dose 0.25 μg/100 g BW, vs placebo

In the case of `N[C@@H](Cc1ccc(Oc2cc(I)c(O)c(I)c2)c(I)c1)C(=O)O` [rT3, 3′,5′,3-triiodothyronine], the Body mass ([1]; osmotic pump in the peritoneal cavity, 21 days) was “significant reduction”, the Body mass ([1]; osmotic pump under the skin, 21 days) was “significant reduction” and the “Food intake immediately after the pellet” value ([1]; 25 μg/100 g BW pellet, from day 4 until day 7) was “decrease”. For the same compound, the “Influence on the animal mass (rat body weight)” value ([1]; 25 μg/100 g BW/day, continuous and constant administration (subcutaneous pellet), 8 days) was “reduce the rat body weight”, the “Growth rate (body weight)” value ([1]; high dose 25 μg/100 g BW, subcutaneous pellet, 21 days, vs placebo) was “did not show any weight gain; also recorded: reduce the body weight” and the “Appetite (food intake)” value ([1]; low dose 2.5 μg/100 g BW) was “without modifying their appetite”. For the same compound, the “Body weight (body mass)” value ([1]; low dose 2.5 μg/100 g BW, sub-cutaneous pellet, 21 days, vs placebo) was “reduce the body weight; also recorded: significant reduction” and the Body weight [2] was “also reduce the body weight”.
